The values below come from ChEMBL document CHEMBL3779768, “Simple N(ε)-thioacetyl-lysine-containing cyclic peptides exhibiting highly potent sirtuin inhibition” (Bioorg Med Chem Lett, 2016).

In assay [1] the target is T1, NAD-dependent protein deacetylase sirtuin-1 (Homo sapiens, UniProt Q96EB6).
T1 sequence (Q96EB6 whole entry): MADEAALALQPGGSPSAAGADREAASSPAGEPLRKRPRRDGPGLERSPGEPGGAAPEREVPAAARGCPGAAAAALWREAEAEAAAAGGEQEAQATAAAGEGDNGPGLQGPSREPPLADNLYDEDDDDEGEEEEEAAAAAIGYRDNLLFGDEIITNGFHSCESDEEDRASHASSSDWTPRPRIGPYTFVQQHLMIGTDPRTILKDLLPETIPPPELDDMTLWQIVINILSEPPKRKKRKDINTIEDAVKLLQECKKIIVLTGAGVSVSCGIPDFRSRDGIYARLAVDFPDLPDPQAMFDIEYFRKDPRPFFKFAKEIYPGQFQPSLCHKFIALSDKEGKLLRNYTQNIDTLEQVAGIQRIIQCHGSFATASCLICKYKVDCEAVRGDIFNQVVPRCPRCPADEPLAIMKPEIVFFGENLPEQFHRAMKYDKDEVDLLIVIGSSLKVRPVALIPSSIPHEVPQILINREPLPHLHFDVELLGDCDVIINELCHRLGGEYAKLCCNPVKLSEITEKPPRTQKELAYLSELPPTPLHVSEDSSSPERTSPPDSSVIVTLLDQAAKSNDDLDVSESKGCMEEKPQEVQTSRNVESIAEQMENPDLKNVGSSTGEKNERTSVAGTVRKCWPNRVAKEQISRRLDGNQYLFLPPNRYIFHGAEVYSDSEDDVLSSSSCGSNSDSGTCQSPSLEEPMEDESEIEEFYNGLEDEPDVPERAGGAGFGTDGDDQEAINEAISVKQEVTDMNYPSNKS
Kind of assay: Inhibition of human SIRT1 (133 to 747 amino acid residues) assessed as deacetylation using Z-Lys(Acetyl)-AMC as substrate measured after 4 hrs by fluorescence based microplate reader method in presence of 500 uM beta-NAD+.

The target of assay [2] is T2, NAD-dependent protein deacetylase sirtuin-3, mitochondrial (Homo sapiens, UniProt Q9NTG7).
T2 sequence (Q9NTG7 whole entry): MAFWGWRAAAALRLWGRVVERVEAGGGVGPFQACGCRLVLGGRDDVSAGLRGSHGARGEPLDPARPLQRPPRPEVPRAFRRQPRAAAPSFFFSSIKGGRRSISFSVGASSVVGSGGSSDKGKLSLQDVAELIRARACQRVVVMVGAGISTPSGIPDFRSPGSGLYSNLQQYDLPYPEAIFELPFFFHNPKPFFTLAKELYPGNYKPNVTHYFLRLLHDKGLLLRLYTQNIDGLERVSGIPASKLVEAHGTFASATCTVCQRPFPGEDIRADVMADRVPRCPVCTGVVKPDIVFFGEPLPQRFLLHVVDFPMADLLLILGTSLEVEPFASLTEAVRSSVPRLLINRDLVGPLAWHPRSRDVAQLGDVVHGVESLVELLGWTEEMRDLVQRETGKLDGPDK
Kind of assay: Inhibition of human SIRT3 expressed in Escherichia coli BL21 (DE3) assessed as deacetylation using Z-Lys(Acetyl)-AMC as substrate measured after 4 hrs by fluorescence based microplate reader method in presence of 500 uM beta NAD+.

The target in assay [3] is T1, NAD-dependent protein deacetylase sirtuin-1. In words: Inhibition of SIRT1 (unknown origin).
In assay [4] the target is T3, NAD-dependent protein deacetylase sirtuin-2 (Homo sapiens, UniProt Q8IXJ6).
T3 sequence (Q8IXJ6 whole entry): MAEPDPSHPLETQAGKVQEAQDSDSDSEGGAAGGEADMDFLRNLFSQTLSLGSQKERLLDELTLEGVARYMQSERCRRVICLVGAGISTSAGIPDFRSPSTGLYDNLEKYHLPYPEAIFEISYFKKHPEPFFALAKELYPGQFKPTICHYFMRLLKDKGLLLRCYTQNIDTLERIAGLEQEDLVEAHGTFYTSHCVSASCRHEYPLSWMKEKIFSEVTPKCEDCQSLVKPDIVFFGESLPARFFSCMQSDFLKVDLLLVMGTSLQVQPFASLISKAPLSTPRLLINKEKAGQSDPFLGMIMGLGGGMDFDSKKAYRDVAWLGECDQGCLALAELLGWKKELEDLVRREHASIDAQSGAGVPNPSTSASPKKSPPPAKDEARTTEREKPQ
In words: Inhibition of human SIRT2.

Assay [5] addresses T2, NAD-dependent protein deacetylase sirtuin-3, mitochondrial. Kind of assay: Inhibition of SIRT3 (unknown origin).
The target in assay [6] is T1, NAD-dependent protein deacetylase sirtuin-1. Kind of assay: Inhibition of recombinant GST-tagged human SIRT1 using 0.3 mM H2N-HK-[N(epsilon)-acetyl-lysine]-LM-COOH as substrate measured after 10 mins HPLC analysis in presence of 0.5 mM beta-NAD+.
Assay [7] addresses T3, NAD-dependent protein deacetylase sirtuin-2. Kind of assay: Inhibition of recombinant His6 tagged human SIRT2 using 0.39 mM H2N-HK-[N(epsilon)-acetyl-lysine]-LM-COOH as substrate measured after 12 mins HPLC analysis in presence of 0.5 mM beta-NAD+.
Assay [8] has as its target T2, NAD-dependent protein deacetylase sirtuin-3, mitochondrial. Kind of assay: Inhibition of recombinant His6 tagged human SIRT3 using 0.105 mM H2N-HK-[N(epsilon)-acetyl-lysine]-LM-COOH as substrate measured after 10 mins HPLC analysis in presence of 3.5 mM beta-NAD+.

pIC50: −log10 of the molar value. *1 amine or outer side, *2 acyl side, *3 side chain or, on linkers, in order; H or OH if unused. Where a SMILES comes first, the peptide text is derived from it. Bridges are numbered along the chain shown (N, C = ends). [ ]: non-standard residue; d: D form. Suberoyl(Gly)2 = O=C(CCCCCCC(=O)NCC(=O)[*:2])NCC(=O)[*:1]; Lys(Thioacetyl) = CC(=S)NCCCC[C@H](N)C(=O)O; Suberoyl = O=C(CCCCCCC(=O)[*:2])[*:1]; Adipoyl = O=C(CCCCC(=O)[*:2])[*:1]; Suc = O=C(CCC(=O)[*:2])[*:1]

For orientation: pIC50 means the negative decadic logarithm of the IC50, by convention in mol/L. As for `Cc1cc(C)nc(SCC(=O)Nc2ncc(Cc3cccc4ccccc34)s2)n1`, the pIC50 in assay [1] and in assay [2] was under 3.85 each time.

With `CC[C@H](C)[C@@H]1NC(=O)[C@H](CCCNC(=N)N)NC(=O)[C@H](Cc2ccccc2)NC(=O)[C@H](CC(N)=O)NC(=O)[C@@H](CO)NC(=O)[C@H](Cc2ccc(O)cc2)NC(=O)CSC[C@@H](C(N)=O)NC(=O)[C@H](CO)NC(=O)[C@H](CO)NC(=O)[C@H](CC(N)=O)NC(=O)[C@H](CO)NC(=O)[C@H](Cc2ccc(O)cc2)NC(=O)[C@H](CCCNC(=N)N)NC(=O)[C@H](CCCCNC(=O)C(F)(F)F)NC1=O`, the negative-log IC50 (pIC50) is 7.33 in assay [3], 8.49 in assay [4] and 6.32 in assay [5].

As for `CSCC[C@H](NC(=O)[C@@H]1CCCCNC(=O)CNC(=O)CCC(=O)NCC(=O)NCCCC[C@H](NC(C)=O)C(=O)N[C@@H](CCCCN)C(=O)N[C@@H](CCCCNC(C)=S)C(=O)N1)C(N)=O`, the pIC50 in assay [6] is 7.25; in assay [7] it was 7.23; in assay [8], 6.99.

In the case of `CSCC[C@H](NC(=O)[C@@H]1CCCCNC(=O)CNC(=O)CCCCC(=O)NCC(=O)NCCCC[C@H](NC(C)=O)C(=O)N[C@@H](CCCCN)C(=O)N[C@@H](CCCCNC(C)=S)C(=O)N1)C(N)=O`, the negative-log IC50 (pIC50) in assay [6] was 7.41; in assay [7] it was 7.27; in assay [8], 7.28.

As for `CSCC[C@H](NC(=O)[C@H](CC(C)C)NC(=O)[C@H](CCCCNC(C)=S)NC(=O)[C@H](CCCCN)NC(=O)[C@H](Cc1c[nH]cn1)NC(C)=O)C(N)=O` (Ac-HK[Lys(Thioacetyl)]LM-NH2), the pIC50 in assay [6] was 6.78; in assay [7] it was 6.48.

With `CSCC[C@H](NC(=O)[C@@H]1CCCCNC(=O)CCCCC(=O)NCCCC[C@H](NC(C)=O)C(=O)N[C@@H](CCCCN)C(=O)N[C@@H](CCCCNC(C)=S)C(=O)N1)C(N)=O` (Ac-KK[Lys(Thioacetyl)]KM-NH2; linker 1-4 via Adipoyl), the pIC50 in assay [6] was 7.20; in assay [7], 6.87.

With `CSCC[C@H](NC(=O)[C@@H]1CCCCNC(=O)CNC(=O)CCCCCCC(=O)NCC(=O)NCCCC[C@H](NC(C)=O)C(=O)N[C@@H](CCCCN)C(=O)N[C@@H](CCCCNC(C)=S)C(=O)N1)C(N)=O` (Ac-KK[Lys(Thioacetyl)]KM-NH2; linker 1-4 via Suberoyl(Gly)2), the pIC50 is 8.64 in assay [6], 6.84 in assay [7] and 7.37 in assay [8].

Turning to `CSCC[C@H](NC(=O)[C@@H]1CCCCNC(=O)CCCCCCC(=O)NCCCC[C@H](NC(C)=O)C(=O)N[C@@H](CCCCN)C(=O)N[C@@H](CCCCNC(C)=S)C(=O)N1)C(N)=O` (Ac-KK[Lys(Thioacetyl)]KM-NH2; linker 1-4 via Suberoyl), the pIC50 in assay [6] is 7.43; in assay [7], 6.39.

For the compound `CSCC[C@H](NC(=O)[C@@H]1CCCCNC(=O)CCC(=O)NCCCC[C@H](NC(C)=O)C(=O)N[C@@H](CCCCN)C(=O)N[C@@H](CCCCNC(C)=S)C(=O)N1)C(N)=O` (Ac-KK[Lys(Thioacetyl)]KM-NH2; linker 1-4 via Suc), the pIC50 is 7.12 in assay [6] and 8.00 in assay [7].
